Experimental findings from patent US9168247B2, “Beta carboline derivatives useful in the treatment of proliferative disorders” (FACULTES UNIVERSITAIRES NOTRE DAME DE LA PAIX, priority 2010, dated 2015) are described below.

Like-named read-outs stand apart in the source and are kept apart here.

The subject of one test is T98G glioma cells. The test can be described thus: MTT test, overall cell growth, T98G. The test is classed as cell-based, human. The conditions noted are these: 72 hours of incubation. Put shortly: (§1)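 Glioma (Hs683, T98G, U373) and oesophageal (OE21, OE33) lines seeded at 5,000–8,000 cells/well, treated 24 h later with compound at 1×10^−8 to 1×10^−4 M for 72 h at 37 °C, in sestuplicate.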
(In general: Tetrazolium dyes change colour on reduction, which living cells bring about.)

The subject of a further test is Hs683 glioma cells. The test can be described thus: MTT test, overall cell growth, Hs683. The format is cell-based, human. In outline:
as §1

For test [1], the system named is OE21 oesophageal cancer cells. The test can be described thus: MTT test, overall cell growth, OE21. The test is classed as cell-based, human. In outline:
as §1

The subject of test [2] is OE33 oesophageal cancer cells. The test can be described thus: MTT test, overall cell growth, OE33. The format is cell-based, human. In outline: as §1
Test [3] concerns human cancer cell lines (U373, T98G, Hs683, OE21, OE33). The test can be described thus: MTT test, mean over the cancer cell lines. The format is cell-based. In outline:
as §1

Another test has as its target DYRK1A protein kinase (Homo sapiens (Human), UniProt Q13627). The test can be described thus: Radiometric protein kinase assay (33PanQinase Activity Assay). Conditions: 10 concentrations in triplicate, 1 μM ATP; read-out: IC50: Concentration of drug (μM) needed in order to inhibit dyrk1A kinase activity by 50%. The test is classed as biochemical. How it is done: The IC50 profile of JR212, JR220, JR84, CV12, CV24, and JR95 was determined on DYRK1A protein kinase. […] Compound cv12 was tested in the range from about 5×10^−5 M to about 1.5×10^−9 M in triplicate.
A radiometric protein kinase assay (33PanQinase® Activity Assay) was used for measuring the kinase activity of DYRK1A protein kinase. All kinase assays were performed in 96-well FlashPlates™ from Perkin Elmer (Boston, Mass., USA) in a 50 μl reaction volume. The reaction cocktail was pipetted in four steps in the following order: 20 μl of assay buffer (standard buffer); 5 μl of [γ-33P]-ATP solution (in H2O); 5 μl of test compound (in 10% DMSO); 10 μl of substrate/10 μl of enzyme solution (premixed).
The assay contained 60 mM HEPES-NaOH, pH 7.5, 3 mM MgCl2, 3 mM MnCl2, 3 μM Na-orthovanadate, 1.2 mM DTT, 50 μg/ml PEG20000, 1 μM [γ-^33P]-ATP (approx. 3×10^5 cpm per well), protein kinase, and substrate.
For the determination of inhibitory profiles, DYRK1A protein kinase was used, which was purchased from Invitrogen Corporation. The kinase was expressed in […] as human recombinant GST-fusion protein by means of the baculovirus expression system. According to the data sheet, the purity of the kinase was checked by SDS-PAGE/Coomassie staining and the identity of the kinase was verified by mass spectroscopy. About 5 ng/50 μl (about 0.9 nM) of dyrk1A kinase and about 2000 ng/50 μl of substrate (RBER-CHKtide) are used in each assay.
The reaction cocktails were incubated at 30° C. for 60 minutes. The reaction was stopped with 50 μl of 2% (v/v) H3PO4, plates were aspirated and washed two times with 200 μl 0.9% (w/v) NaCl. Incorporation of ^33P was determined with a microplate scintillation counter (Microbeta, Wallac).
All assays were performed with a BeckmanCoulter/SAGIAN™ Core System.
For each plate, the median value of the cpm of the wells with complete reaction cocktails, but without kinase or compound to be tested, was defined as “low control” (n=8). This value reflects unspecific binding of radioactivity to the plate in the absence of protein kinase but in the presence of the substrate. Additionally, for each plate the median value of the cpm of the wells with the complete reaction cocktail, but without any compound, was taken as the “high control”, i.e., full activity in the absence of any inhibitor (n=8). The difference between high and low control of was taken as 100% activity for each kinase. As part of the data evaluation the “low control” value from a particular plate was subtracted from the “high control” value as well as from all 80 “compound values” of the corresponding plate. The residual activity (in %) for each compound well was calculated by using the following formula: Res. Activity (%)=100×[(cpm of compound−low control)/(high control−low control)].

Setting [4] is: Homo sapiens, Hs 683, 72 hours of incubation.
The mark [5] stands for this setting: Homo sapiens, OE21, 72 hours of incubation.
Setting [6] is: Homo sapiens, OE33, 72 hours of incubation.
Where [7] appears, read: Homo sapiens, Table 4, mean over cell lines, read-out: IC50 μM growth inhibition (MTT test).
Setting [8] is: Homo sapiens, mean over the cancer cell lines, MTT test, read-out: IC50 Mean ± SEM.
[9] abbreviates: Table 4, mean over cell lines, read-out: IC50 μM growth inhibition (MTT test).
Setting [10] is: mean over the cancer cell lines, MTT test, read-out: IC50 Mean ± SEM.

Take `Cc1c2c(cc[n+]1Cc1ccccc1)c1ccc(OCc3ccccc3)cc1n2Cc1ccccc1.[Br-]` [CV21/JR95, 1-methyl-2-benzyl-7-benzyloxy-9-benzyl-β-carbolin-2-ium bromide]: the IC50 in the test on T98G glioma cells (Homo sapiens, T98G) was found to be 0.48 ± 0.02 µM; in the test on Hs683 glioma cells (setting [4]), 0.49 ± 0.05 µM; in test [1] (setting [5]) it was 1.3 ± 0.2 µM; in test [2] (setting [6]), 0.7 ± 0.1 µM; in test [3] (setting [7]), 0.7 µM; in test [3] (setting [8]), 0.7 ± 0.2 µM. Further, the IC50 at DYRK1A protein kinase stood at 21.2 µM.
For the compound `COCCOc1ccc2c(c1)[nH]c1c(C)nccc12` [JR220], the IC50 was 61 ± 7 µM with T98G glioma cells; 53 ± 6 µM in the test with Hs683 glioma cells (72 hours of incubation); 53 ± 4 µM in test [1] (72 hours of incubation); 66 ± 3 µM in test [2] (72 hours of incubation); 60 µM in test [3] (setting [9]); 60 ± 3 µM in test [3] (setting [10]). Also, the IC50 on DYRK1A protein kinase turned out to be 15.5 µM.
Take `Cc1nccc2c3ccc(OCc4ccccc4)cc3n(Cc3ccccc3)c12` [CV9/JR84, 1-methyl-7-benzyloxy-9-benzyl-β-carboline]: the IC50 was found to be 36 ± 2 µM with T98G glioma cells (Homo sapiens, T98G); 33 ± 1 µM in the test on Hs683 glioma cells (setting [4]); 28 ± 3 µM in test [1] (setting [5]); 40 ± 4 µM in test [2] (setting [6]); 31 µM in test [3] (setting [7]); 31 ± 4 µM in test [3] (setting [8]). Besides, at DYRK1A protein kinase, the IC50 was 16.3 µM.
In the case of `Cc1nccc2c1[nH]c1cc(OCc3cccnc3)ccc12` [JR212], the IC50 stood at 29 ± 2 µM in the test with T98G glioma cells; 30 ± 3 µM in the test with Hs683 glioma cells (72 hours of incubation); 28 ± 2 µM in test [1] (72 hours of incubation); 31 ± 2 µM in test [2] (72 hours of incubation); 29 µM in test [3] (setting [9]); 29 ± 1 µM in test [3] (setting [10]). For the same compound, the IC50 on DYRK1A protein kinase was determined as 10 µM.
